Assay results as given in patent US20090197867A1, “ENANTIOMERICALLY ENRICHED IMIDAZOAZEPINONE COMPOUNDS” (priority 2007, published 2009).

Key:
CIA mouse = experiment: Suppression of arthritis development in CIA (active immunization); type: in vivo; conditions: DBA1/J mice, oral dosing once daily, read-out: Arthritis Model Approx ED50, Active Immunization (CIA mouse)
From the text: Suppression of arthritis development in CIA. DBA1/J mice were immunized with bCII/CFA at day 0 then boosted at day 21 with bCII/IFA. Arthritis development was monitored over the course of study. The arthritis score is as follows: 0=normal paw, score of 1=1-2 digit inflamed paws; score of 2=3 digits or 1-2 digit+wrist or ankle inflamed, score of 3=hand+more than 2 digits inflamed; and score of 4=multiple digits (3-4)+important wrist or ankle inflammation.
(A) Partial therapeutic evaluation of compounds. Active compound was given by oral dosing once daily at the dose indicated from day 20 after induction of antibodies to collagen II but before disease development. (B) Full therapeutic evaluation of compound. Active compound was given after disease was developed (from day 7 after the second immunization). (C) X-ray analysis of mouse paws from full therapeutic CIA study. X-ray score is the index of measurement of combination of osteopenia, bone erosion and new bone formation. (D) Representative X-ray radiographs.

CAIA mouse = experiment: Suppression of arthritis development in CAIA (passive immunization); type: in vivo; conditions: BALB/c mice, once daily PO day 0 to day 7
Protocol: Suppression of arthritis development in CAIA. BALB/c mice were injected i.v. with 1 mg of anti-type II collagen antibody at day 0, and 3 days later 25 μg of LPS was injected i.p. with active compound and methotrexate (MTX) was given once daily PO from day 0 to day 7. Arthritis score and body weight was monitored over the course of study.

SMILES	ED50 (CIA mouse) [mg/kg]	ED50 (CAIA mouse; Mus musculus, read-out: Arthritis Model Approx ED50, Passive Immunization (CAIA mouse)) [mg/kg]	activity in the CAIA model (arthritis score) (CAIA mouse)
CCN1C(=O)N2Cc3cc(OC)cc(OC)c3[C@@H](C)C=C2C12CCN(Cc1cc(C)cc(C)c1)CC2 [ER-819762-01]	~3	30 to 60	–
CCN1C(=O)N2Cc3cc(OC)cc(OC)c3[C@@H](C)C=C2C12CCN(Cc1cccn1C)CC2 [ER-819924-01]	3 to 10	–	–
CCN1C(=O)N2Cc3cc(OC)cc(OC)c3[C@@H](C)C=C2C12CCN(Cc1cc(C)nn1C)CC2 [ER-819973-01]	3 to 10	–	–
CN(Cc1cnc2nc(N)nc(N)c2n1)c1ccc(C(=O)N[C@@H](CCC(=O)O)C(=O)O)cc1 [methotrexate, reference compound]	–	–	not particularly active
